The record followed here is patent US20100003246A1, “Novel heterocyclic compounds and uses therof” (priority 2008, published 2010).

Broadly, the IC50 is the concentration needed to halve the response being measured.

T1 sequence (P15056 whole entry V600E): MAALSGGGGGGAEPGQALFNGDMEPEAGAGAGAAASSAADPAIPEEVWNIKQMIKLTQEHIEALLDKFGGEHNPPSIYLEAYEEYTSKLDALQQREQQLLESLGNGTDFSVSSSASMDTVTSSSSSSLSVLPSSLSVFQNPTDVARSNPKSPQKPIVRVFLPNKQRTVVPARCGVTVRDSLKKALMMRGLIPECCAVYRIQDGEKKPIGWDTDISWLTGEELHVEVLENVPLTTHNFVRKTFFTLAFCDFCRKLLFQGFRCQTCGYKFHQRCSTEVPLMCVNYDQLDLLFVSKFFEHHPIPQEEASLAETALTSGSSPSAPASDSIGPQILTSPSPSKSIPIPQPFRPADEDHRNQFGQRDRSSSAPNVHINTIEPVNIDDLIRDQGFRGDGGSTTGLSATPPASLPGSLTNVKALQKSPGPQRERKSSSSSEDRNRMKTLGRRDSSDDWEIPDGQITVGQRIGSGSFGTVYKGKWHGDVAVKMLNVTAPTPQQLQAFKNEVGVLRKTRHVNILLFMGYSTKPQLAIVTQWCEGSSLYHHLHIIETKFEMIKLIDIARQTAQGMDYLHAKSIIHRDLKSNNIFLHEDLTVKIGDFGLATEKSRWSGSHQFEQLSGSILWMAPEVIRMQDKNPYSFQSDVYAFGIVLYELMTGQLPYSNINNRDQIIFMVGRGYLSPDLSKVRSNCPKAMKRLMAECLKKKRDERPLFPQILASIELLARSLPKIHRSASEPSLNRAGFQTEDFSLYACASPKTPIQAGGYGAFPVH

This assay concerns the target T1, b-Raf(V600E) (Homo sapiens, UniProt P15056, V600E).
T1 construct: made in house
In words: Raf/Mek Amplified Luminescence Proximity Homogeneous Assay (Alpha Screen), b-Raf(V600E). As to conditions: mutant b-Raf(V600E), read-out: mut-b-RAF (IC50 in uM). The class given is biochemical. The procedure: Assay buffer: 50 mM Tris, pH 7.5, 15 mM MgCl2, 0.01% BSA, 1 mM DTT Stop buffer: 60 mM EDTA, 0.01% Tween20 Bead buffer: 50 mM Tris, pH 7.5, 0.01% Tween20
b-Raf(V600E), active: Recombinant in-house material biotinylated Mek, kinase dead: Recombinant in-house material Alpha Screen detection kit PerkinElmer, #6760617R Anti phospho-MEK½ Cell signaling #9121 384 well assay plates: White Greiner plates, #781207
b-Raf(V600E) approximately 4 pM c-Raf approximately 4 nM biotinylated Mek, Kinase dead approximately 10 nM
Pre-incubation time with compounds 60 min at room temperature Reaction time 1 or 3 hours at room temperature
Raf and biotinylated Mek, kinase dead, were combined at 2× final concentrations in assay buffer (50 mM Tris, pH 7.5, 15 mM MgCl2, 0.01% BSA and 1 mM DTT) and dispensed 10 μl per well in assay plates (Greiner white 384 well assay plates #781207) containing 0.5 μl of 40× of a raf kinase inhibitor test compound diluted in 100% DMSO. The plate was incubated for 60 min at room temperature.
The Raf kinase activity reaction was started by the addition of 10 μl per well of 2×ATP diluted in assay buffer. After 3 hours (bRaf(V600E)) or 1 hour (c-Raf), the reactions were stopped with the addition of 10 μl of stop reagent (60 mM EDTA). Phosphorylated product was measured using a rabbit anti-p-MEK (Cell Signaling, #9121) antibody and the Alpha Screen IgG (Protein A) detection Kit (PerkinElmer #6760617R), by the addition of 30 μL to the well of a mixture of the antibody (1:2000 dilution) and detection beads (1:2000 dilution of both beads) in bead buffer (50 mM Tris, pH 7.5, 0.01% Tween20). The additions were carried out under dark conditions to protect the detection beads from light. A lid was placed on top of the plate and incubated for 1 hour at room temperature, then the luminescence was read on a PerkinElmer Envision instrument. The concentration of each compound for 50% inhibition (IC50) was calculated by non-linear regression using XL Fit data analysis software.
The Raf/Mek Amplified Luminescence Proximity Homogeneous Assay described was used to generate the luminescence and mutant b-Raf(V600E) IC50 data for selected Raf Kinase Inhibitors shown in Table 1 above.
On to `COc1cc(-c2nc(-c3ccccc3)[nH]c2-c2ccnc(N)n2)cnc1N` [Compound 73, 4-(4-(6-amino-5-methoxypyridin-3-yl)-2-phenyl-1H-imidazol-5-yl)pyrimidin-2-amine], for which the IC50 turned out to be 0.0011 µM. In the case of `COc1cc(-c2nc(-c3ccccc3)[nH]c2-c2ccnc(NC[C@H](C)O)n2)cnc1N` [Compound 74, (S)-1-(4-(4-(6-amino-5-methoxypyridin-3-yl)-2-phenyl-1H-imidazol-5-yl)pyrimidin-2-ylamino)propan-2-ol], the IC50 turned out to be 0.0006 µM. For `COc1cc(-c2nc(-c3ccccc3)[nH]c2-c2ccnc(NC[C@@H](C)O)n2)cnc1N` [Compound 75, (R)-1-(4-(4-(6-amino-5-methoxypyridin-3-yl)-2-phenyl-1H-imidazol-5-yl)pyrimidin-2-ylamino)propan-2-ol], the IC50 came out at 0.0011 µM.

`COc1cc(-c2[nH]c(C3CC3)nc2-c2ccncc2)cnc1N` [Compound 76, 5-(2-cyclopropyl-4-(pyridin-4-yl)-1H-imidazol-5-yl)-3-methoxypyridin-2-amine]: the IC50 turned out to be 0.0015 µM. As for `COc1nc(-c2sc(-c3ccccc3)nc2-c2ccncc2)cnc1N` [Compound 77, 3-methoxy-5-(2-phenyl-4-(pyridin-4-yl)thiazol-5-yl)pyrazin-2-amine], the IC50 turned out to be 0.089 µM. With `COc1cc(-c2nc(-c3cc(F)cc(F)c3)[nH]c2-c2ccncc2)cnc1N` [Compound 78, 5-(2-(3,5-difluorophenyl)-5-(pyridin-4-yl)-1H-imidazol-4-yl)-3-methoxypyridin-2-amine], the IC50 was found to be 0.001 µM. Regarding `COc1cc(-c2nc(-c3ccc(OC(F)(F)F)cc3)[nH]c2-c2ccncc2)cnc1N` [Compound 79, 3-methoxy-5-(5-(pyridin-4-yl)-2-(4-(trifluoromethoxy)phenyl)-1H-imidazol-4-yl)pyridin-2-amine], the IC50 was found to be 0.002 µM.

For the compound `COc1cc(-c2[nH]c(-c3ccccc3)nc2C2=CCOCC2)cnc1N` [Compound 80, 5-(4-(3,6-dihydro-2H-pyran-4-yl)-2-phenyl-1H-imidazol-5-yl)-3-methoxypyridin-2-amine], the half-inhibitory concentration (IC50) is 0.038 µM.

For `COc1cc(-c2nc(-c3ccccc3)[nH]c2-c2ccnc(NC(C)=O)c2)cnc1N` [Compound 82, N-(4-(4-(6-amino-5-methoxypyridin-3-yl)-2-phenyl-1H-imidazol-5-yl)pyridin-2-yl)acetamide], the IC50 is 0.002 µM. The result for `CNc1ncc(-c2nc(-c3ccccc3)[nH]c2-c2ccncc2)cn1` [Compound 83, N-methyl-5-(2-phenyl-5-(pyridin-4-yl)-1H-imidazol-4-yl)pyrimidin-2-amine] reads 0.197 µM; that for `FC(F)(F)c1ccc(-c2nc(-c3ccncc3)c(-c3ccncc3)[nH]2)cc1` [Compound 84, 4,4′-(2-(4-(trifluoromethyl)phenyl)-1H-imidazole-4,5-diyl)dipyridine], 0.229 µM; that for `COc1cc(-c2[nH]c(-c3ccccc3)nc2-c2ccn[nH]2)cnc1N` [Compound 86, 3-methoxy-5-(2-phenyl-4-(1H-pyrazol-5-yl)-1H-imidazol-5-yl)pyridin-2-amine], 0.537 µM. As for `N#Cc1cc(-c2[nH]c(-c3ccccc3)nc2-c2ccncc2)cnc1N` [Compound 87, 2-amino-5-(2-phenyl-4-(pyridin-4-yl)-1H-imidazol-5-yl)nicotinonitrile], the IC50 is 0.391 µM. On to `COc1cc(-c2[nH]c(-c3ccccc3)nc2-c2ccnc(NCCNS(=O)(=O)C3CC3)n2)cnc1N` [Compound 88, N-(2-(4-(5-(6-amino-5-methoxypyridin-3-yl)-2-phenyl-1H-imidazol-4-yl)pyrimidin-2-ylamino)ethyl)cyclopro-panesulfonamide], for which the concentration for half-maximal inhibition (IC50) is 0.0001 µM. As to `COc1cc(-c2oc(-c3ccccc3)nc2-c2ccncc2)cnc1N` [Compound 89, 3-methoxy-5-(2-phenyl-4-(pyridin-4-yl)oxazol-5-yl)pyridin-2-amine], the IC50 is 0.0137 µM. On to `COc1nc(-c2oc(-c3ccccc3)nc2-c2ccncc2)cnc1N` [Compound 90, 3-methoxy-5-(2-phenyl-4-(pyridin-4-yl)oxazol-5-yl)pyrazin-2-amine], for which the IC50 was found to be 0.113 µM.
